Experimental data reported in patent US20120010178A1, “METHODS AND COMPOUNDS FOR TREATMENT OF NEURODEGENERATIVE DISORDERS” (PRESIDENT AND FELLOWS OF HARVARD COLLEGE, priority 2008, published 2012).
Entries after “also recorded” stand apart in the source; their conditions may differ.

Legend:
[1] = system: SMN; experiment: SMN immunofluorescence quantification (cytoplasm, nucleus, GEMs) in fibroblasts from SMA patients; type: cell-based, human; conditions: SMA patient fibroblasts
In short: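 SMN immunostained and imaged by automated confocal microscopy; per-cell cytoplasmic and nuclear SMN intensity and GEM number and intensity quantified. PFA fixation used for screening.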

[2] = system: SMN1 and SMN2 transcripts; experiment: qRT-PCR of SMN1 and SMN2 transcripts after PDGF-BB; type: cell-based, human; conditions: 50 ng/ml, over three days
Protocol: Although there is much more known about growth factor specificity and downstream pathways that they activate, whether PDGF effect on SMN was mediated through the binding to the PDGFR was tested next. The SMN-increasing effects of PDGF were blocked by DMPQ and […], two small molecules inhibitors of the PDGF receptor (FIG. 21a). In addition PDGF neutralizing antibody titration were performed in the cells incubated with 20 ng/ml platelet-derived PDGF. Depending on the antibody concentration, gradient of SMN level decrease reaching 40% was observed (FIG. 21b). Moreover, as might be predicted, since there are appreciable levels of PDGF in the media serum in which the fibroblasts are normally maintained, simply adding PDGFR inhibitors DMPQ and AG-1296 to the media decreases the “basal” level of SMN in these cells down to 15-20%, (FIG. 22). […]
[…] was purified using Tri-Reagent (Sigma-Aldrich) protocol and quantified on the Nanodrop (Thermo Fisher Scientific). […] Synthesised cDNA was diluted 5 times and 1 μl of cDNA sample was PCR amplified using RT^2SYBR Green/ROX PCR Master Mix and primer assays for SMN1, SMN2, GAPDH (SABiosciences) genes on 7900HT Fast Real-Time PCR System (ABI). qPCR results were analyzed with RQ Manager Software (ABI) by […] quantification method.

PDGF-BB: human recombinant PDGF-BB
levels of cytoplasmic and nuclear SMN (in words) ([1]; substance alone): strongest activator of SMN; also recorded: most potent growth factor that elevated SMN protein levels | Avg. SMN fold increase ([1]; human PDGF isoforms): 2-2.3 fold | level of SMN1 and SMN2 transcripts [2]: little or no increase in SMN transcripts
